Consider 17 compounds from patent US12600709B2, “Nonpeptide somatostatin type 5 receptor agonists and uses thereof” (Crinetics Pharmaceuticals, Inc., priority 2019, dated 2026).

SMILES strings stand for the structures. Read-outs that look alike come from different tables or passages of the source. Some results are limits rather than exact numbers.

The target in experiment [1] is T1, human somatostatin receptor subtype 5 (Homo sapiens, UniProt P35346).
T1 construct: expressed in transfected cells
T1 sequence (P35346 whole entry): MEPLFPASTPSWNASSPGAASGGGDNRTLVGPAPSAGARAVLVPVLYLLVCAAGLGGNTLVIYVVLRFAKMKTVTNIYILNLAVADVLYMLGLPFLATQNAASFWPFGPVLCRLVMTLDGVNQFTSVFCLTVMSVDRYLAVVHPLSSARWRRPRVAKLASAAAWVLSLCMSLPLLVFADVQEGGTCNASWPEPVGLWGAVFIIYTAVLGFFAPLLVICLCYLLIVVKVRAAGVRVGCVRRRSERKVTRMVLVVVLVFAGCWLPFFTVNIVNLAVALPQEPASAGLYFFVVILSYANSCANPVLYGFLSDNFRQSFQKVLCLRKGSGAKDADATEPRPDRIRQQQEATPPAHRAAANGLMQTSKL
Put plainly: cAMP assay for SST5R (inhibition of cAMP in CHO-K1 cells). In kind it is cell-based. The settings on record: for EC50: inhibition of cAMP via human SST5 receptor, read-out: SST5 potency; for Fold selectivity for SST5 vs SST2: class symbols, SST5 receptor over SST2 receptor. In short, it runs like this:
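CHO-K1 cells stably expressing human SSTR5 were treated 20 min at 37 °C with compounds plus 1.6 μM NKH477 in HBSS, 0.5 mM HEPES pH 7.4, 0.1% BSA, 0.2 mM IBMX. Lysate cAMP measured by HTRF against a standard curve; EC50 from cAMP-versus-concentration plots.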

The target in experiment [2] is T2, human somatostatin receptor subtype 2 (Homo sapiens, UniProt P30874).
T2 construct: expressed in transfected cells
T2 sequence (P30874 whole entry): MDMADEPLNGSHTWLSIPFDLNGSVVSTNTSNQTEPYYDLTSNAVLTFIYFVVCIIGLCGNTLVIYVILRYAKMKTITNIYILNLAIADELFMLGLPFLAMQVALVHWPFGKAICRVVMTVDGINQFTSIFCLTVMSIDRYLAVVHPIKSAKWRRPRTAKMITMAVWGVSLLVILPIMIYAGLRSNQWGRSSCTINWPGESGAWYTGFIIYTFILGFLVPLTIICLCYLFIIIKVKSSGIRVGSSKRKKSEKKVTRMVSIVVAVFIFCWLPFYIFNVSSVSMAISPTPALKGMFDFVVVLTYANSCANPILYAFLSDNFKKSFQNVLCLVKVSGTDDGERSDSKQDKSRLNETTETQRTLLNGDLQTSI
Nature of the experiment: cAMP assay for SST2R (inhibition of cAMP in CHO-K1 cells). The settings on record: Table B; inhibition of cAMP via human SST2 receptor; read-out: SST2 potency. In kind it is cell-based. An excerpt: General overview: All five SSTR subtypes are Gi coupled G-protein coupled receptors (GPCRs) that lead to decreases in intracellular cyclic AMP (cAMP) when activated by an agonist. Therefore, measurement of intracellular cAMP levels can be used to assess whether compounds of the invention are agonists of SSTR subtypes (John Kelly, Troy Stevens, W. Joseph Thompson, and Roland Seifert, Current Protocols in Pharmacology, 2005, 2.2.1-2.2). One example of an intracellular cAMP assay is described below.
cAMP Assay Protocol for SST2R:
Four days prior to the assay, 5,000 Chinese hamster ovary cells (CHO-K1, ATCC #CCL-61) stably expressing the human somatostatin receptor subtype 2 are plated in each well of a 96-well tissue culture-treated plate in Ham's F12 growth media (ThermoFisher #10-080-CM) supplemented with 10% donor bovine serum (Gemini Bio-Products #100-506), 100 U/mL penicillin; 100 μg/mL streptomycin; 2 mM L-glutamine (Gemini Bio-Products #400-110) and 0.2 mg/mL hygromycin B (GoldBio #31282-04-9). The cells are cultured at 37° C., 5% CO2 and 95% humidity. On the day of the assay, the media is aspirated and the cells are treated with 50 μL of 1.6 μM NKH477 (Sigma #N3290) plus various dilutions of compounds of the invention in assay buffer [1× Hank's Balanced Salt Solution (ThermoFisher #SH3058802), 0.5 mM HEPES pH 7.4, 0.1% bovine serum albumin, 0.2 mM 3-Isobutyl-1-methylxanthine (IBMX, VWR #200002-790)]. The cells are incubated for 20 minutes at 37° C. […] The cells are treated with 50 μL of lysis buffer (HRTF cAMP kit, Cisbio). The lysate is transferred to 384-well plates and cAMP detection and visualization antibodies are added and incubated for 1-24 hours at room temperature. The time-resolved fluorescent signal is read with a Tecan M1000Pro multiplate reader. The intracellular cAMP concentrations are calculated by regression to a standard curve and are plotted vs. the concentration of the compounds of the invention and the EC50 of the compounds are calculated using standard methods. All data manipulations are in GraphPad Prism v6 or v7.

As for `C[C@]1(N)CCN(c2c(C(=O)NC3CCC(F)(F)CC3)cnc(C#N)c2-c2cc(F)cc(F)c2)C1` [1-48, 4-[(3S)-3-amino-3-methylpyrrolidin-1-yl]-6-cyano-N-(4,4-difluorocyclohexyl)-5-(3,5-difluorophenyl)pyridine-3-carboxamide], the figures for the EC50 in experiment [1] (Table A), in experiment [1] (Table B) and in experiment [2] were below 0.01 µM, below 0.01 µM and 0.1 to 1 µM, respectively. In addition, the “Fold selectivity for SST5 vs SST2” value in experiment [1] (Table B) is listed as “+++ (+++=>500)”.

Regarding `COc1ncc(C(=O)N[C@@H](C)c2ccccn2)c(N2CC[C@](C)(N)C2)c1-c1cc(F)cc(Cl)c1` [1-240, 4-[(3S)-3-amino-3-methylpyrrolidin-1-yl]-5-(3-chloro-5-fluorophenyl)-6-methoxy-N-[(1S)-1-(pyridin-2-yl)ethyl]pyridine-3-carboxamide], the EC50 in experiment [1] (Table A) was below 0.01 µM; in experiment [1] (Table B), below 0.01 µM; in experiment [2], 0.1 to 1 µM. Also, in experiment [1] (Table B), the “Fold selectivity for SST5 vs SST2” value is recorded as “+++ (+++=>500)”.

As to `COc1cc(-c2c(C#N)ncc(C(=O)N[C@@H](C)C(F)(F)F)c2N2CC[C@](C)(N)C2)ccn1` [1-170, 4-[(3S)-3-amino-3-methylpyrrolidin-1-yl]-2-cyano-2′-methoxy-N-[(2S)-1,1,1-trifluoropropan-2-yl]-[3,4′-bipyridine]-5-carboxamide], the EC50 in experiment [1] (Table A) is below 0.01 µM; in experiment [1] (Table B) it was below 0.01 µM; in experiment [2] it was 0.1 to 1 µM. The “Fold selectivity for SST5 vs SST2” value in experiment [1] (Table B) was “+++ (+++=>500)”.

Consider `COc1ncc(C(=O)N[C@@H](C)C2CC2)c(N2CC[C@H](N)C2)c1-c1cc(F)cc(Cl)c1` [1-282, 4-[(3S)-3-aminopyrrolidin-1-yl]-5-(3-chloro-5-fluorophenyl)-N-[(1S)-1-cyclopropylethyl]-6-methoxypyridine-3-carboxamide], for which the EC50 in experiment [1] (Table A) was below 0.01 µM; in experiment [1] (Table B), below 0.01 µM; in experiment [2] it was 0.1 to 1 µM. The “Fold selectivity for SST5 vs SST2” value in experiment [1] (Table B) is reported as “+++ (+++=>500)”.

As for `C[C@H](NC(=O)c1cnc(C#N)c(-c2cc(F)cc(F)c2)c1N1CC[C@](C)(N)C1)c1ccccn1` [1-103, 4-[(3S)-3-amino-3-methylpyrrolidin-1-yl]-6-cyano-5-(3,5-difluorophenyl)-N-[(1S)-1-(pyridin-2-yl)ethyl]pyridine-3-carboxamide], the EC50 in experiment [1] (Table A) is below 0.01 µM; in experiment [1] (Table B), below 0.01 µM; in experiment [2], above 1 µM. Moreover, the “Fold selectivity for SST5 vs SST2” value in experiment [1] (Table B) is listed as “+++ (+++=>500)”.

In the case of `C[C@H](NC(=O)c1cnc(C#N)c(-c2cc(F)cc(Cl)c2)c1N1CC[C@](C)(N)C1)c1ccccn1` [1-245, 4-[(3S)-3-amino-3-methylpyrrolidin-1-yl]-5-(3-chloro-5-fluorophenyl)-6-cyano-N-[(1 S)-1-(pyridin-2-yl)ethyl]pyridine-3-carboxamide], the results for the EC50 in experiment [1] (Table A), in experiment [1] (Table B) and in experiment [2] were below 0.01 µM, below 0.01 µM and above 1 µM, respectively. For the same compound, the “Fold selectivity for SST5 vs SST2” value in experiment [1] (Table B) is listed as “+++ (+++=>500)”.

As to `C[C@H](NC(=O)c1cnc(C#N)c(-c2cc(F)cc(F)c2)c1N1CC[C@](C)(N)C1)C(F)(F)F` [1-192, 4-[(3S)-3-amino-3-methylpyrrolidin-1-yl]-6-cyano-5-(3,5-difluorophenyl)-N-[(2S)-1,1,1-trifluoropropan-2-yl]pyridine-3-carboxamide], the EC50 in experiment [1] (Table A) was below 0.01 µM; in experiment [1] (Table B), below 0.01 µM; in experiment [2], 0.01 to 0.1 µM. Also, the “Fold selectivity for SST5 vs SST2” value in experiment [1] (Table B) is “++ (++=100 to 499)”.

For `COc1ncc(C(=O)N[C@@H](C)C(F)(F)F)c(N2CC[C@](C)(N)C2)c1-c1cccc2c1cnn2C` [1-183, 4-[(3S)-3-amino-3-methylpyrrolidin-1-yl]-6-methoxy-5-(1-methyl-1H-indazol-4-yl)-N-[(2S)-1,1,1-trifluoropropan-2-yl]pyridine-3-carboxamide], the EC50 in experiment [1] (Table A) is below 0.01 µM; in experiment [1] (Table B) it was below 0.01 µM; in experiment [2] it was above 1 µM. Moreover, the “Fold selectivity for SST5 vs SST2” value in experiment [1] (Table B) is recorded as “+++ (+++=>500)”.

For the compound `Cc1cccc2[nH]c(-c3cncc(C(=O)N4CC5CCC4CC5)c3N3CC[C@](C)(N)C3)nc12` [2-35, (3S)-1-(3-{2-azabicyclo[2.2.2]octane-2-carbonyl}-5-(4-methyl-1H-1,3-benzodiazol-2-yl)pyridin-4-yl)-3-methylpyrrolidin-3-amine], the EC50 in experiment [1] (Table A) was below 0.01 µM; in experiment [1] (Table B) it was below 0.01 µM; in experiment [2], 0.1 to 1 µM. For the same compound, the “Fold selectivity for SST5 vs SST2” value in experiment [1] (Table B) is listed as “++ (++=100 to 499)”.

On to `CC(NC(=O)c1cnc(C#N)c(-c2cc(F)cc(F)c2)c1N1CC[C@](C)(N)C1)c1ncccn1` (stereo partly drawn) [1-126, 4-[(3S)-3-amino-3-methylpyrrolidin-1-yl]-6-cyano-5-(3,5-difluorophenyl)-N-[1-(pyrimidin-2-yl)ethyl]pyridine-3-carboxamide], for which the EC50 in experiment [1] (Table A) was below 0.01 µM; in experiment [1] (Table B), below 0.01 µM; in experiment [2], above 1 µM. Besides, the “Fold selectivity for SST5 vs SST2” value in experiment [1] (Table B) is given as “+++ (+++=>500)”.

Take `CCC(CC)CNC(=O)c1cncc(-c2cc(F)cc(F)c2)c1N1CC[C@](C)(N)C1` [1-58, 4-[(3S)-3-amino-3-methylpyrrolidin-1-yl]-5-(3,5-difluorophenyl)-N-(2-ethylbutyl)pyridine-3-carboxamide]: the figures for the EC50 in experiment [1] (Table A), in experiment [1] (Table B) and in experiment [2] were below 0.01 µM, below 0.01 µM and 0.1 to 1 µM, respectively. Further, the “Fold selectivity for SST5 vs SST2” value in experiment [1] (Table B) is given as “+++ (+++=>500)”.

As for `Cc1ncc(C(=O)NC2CCC(F)(F)CC2)c(N2CC[C@H](N)C2)c1-c1cc(F)cc(Cl)c1` [1-277, 4-[(3S)-3-aminopyrrolidin-1-yl]-5-(3-chloro-5-fluorophenyl)-N-(4,4-difluorocyclohexyl)-6-methylpyridine-3-carboxamide], the results for the EC50 in experiment [1] (Table A), in experiment [1] (Table B) and in experiment [2] were below 0.01 µM, below 0.01 µM and above 1 µM, respectively. Moreover, the “Fold selectivity for SST5 vs SST2” value in experiment [1] (Table B) is on record as “+++ (+++=>500)”.

On to `N#Cc1ncc(C(=O)NC23CC(C2)C3)c(N2CC[C@H](N)C2)c1-c1cc(F)cc(F)c1` [1-64, 4-[(3S)-3-aminopyrrolidin-1-yl]-N-{bicyclo[1.1.1]pentan-1-yl}-6-cyano-5-(3,5-difluorophenyl)pyridine-3-carboxamide], for which the values for the EC50 in experiment [1] (Table A), in experiment [1] (Table B) and in experiment [2] were below 0.01 µM, below 0.01 µM and above 1 µM, respectively. Also, the “Fold selectivity for SST5 vs SST2” value in experiment [1] (Table B) is reported as “+++ (+++=>500)”.

Regarding `Cc1ncc(C(=O)N[C@@H](C)C2CC2)c(N2CC[C@](C)(N)C2)c1-c1ccc(F)c(Cl)c1` [1-289, 4-[(3S)-3-amino-3-methylpyrrolidin-1-yl]-5-(3-chloro-4-fluorophenyl)-N-[(1S)-1-cyclopropylethyl]-6-methylpyridine-3-carboxamide], the EC50 was below 0.01 µM in experiment [1] (Table A), below 0.01 µM in experiment [1] (Table B) and 0.1 to 1 µM in experiment [2]. In addition, the “Fold selectivity for SST5 vs SST2” value in experiment [1] (Table B) is listed as “+++ (+++=>500)”.

Consider `COc1ncc(C(=O)NC2CC(F)(F)C2)c(N2CC[C@](C)(N)C2)c1-c1cc(F)cc(F)c1` [1-137, 4-[(3S)-3-amino-3-methylpyrrolidin-1-yl]-N-(3,3-difluorocyclobutyl)-5-(3,5-difluorophenyl)-6-methoxypyridine-3-carboxamide], for which the EC50 in experiment [1] (Table A) was below 0.01 µM; in experiment [1] (Table B), below 0.01 µM; in experiment [2], 0.1 to 1 µM. The “Fold selectivity for SST5 vs SST2” value in experiment [1] (Table B) is reported as “+++ (+++=>500)”.

For the compound `Cc1ncc(C(=O)NC2CCC(F)(F)CC2)c(N2CC[C@](C)(N)C2)c1-c1cc(F)cc(OC(F)F)c1` [1-174, 4-[(3S)-3-amino-3-methylpyrrolidin-1-yl]-N-(4,4-difluorocyclohexyl)-5-[3-(difluoromethoxy)-5-fluorophenyl]-6-methylpyridine-3-carboxamide], the EC50 in experiment [1] (Table A) was below 0.01 µM; in experiment [1] (Table B), below 0.01 µM; in experiment [2], 0.1 to 1 µM. Moreover, in experiment [1] (Table B), the “Fold selectivity for SST5 vs SST2” value was “+++ (+++=>500)”.

Consider `CC(C)CNC(=O)c1cnc(C#N)c(-c2cc(F)cc(F)c2)c1N1CC[C@](C)(N)C1` [1-85, 4-[(3S)-3-amino-3-methylpyrrolidin-1-yl]-6-cyano-5-(3,5-difluorophenyl)-N-(2-methylpropyl)pyridine-3-carboxamide], for which the EC50 in experiment [1] (Table A) is below 0.01 µM; in experiment [1] (Table B), below 0.01 µM; in experiment [2], 0.1 to 1 µM. The “Fold selectivity for SST5 vs SST2” value in experiment [1] (Table B) is listed as “+++ (+++=>500)”.
